# In patent publication US11701372B2, “Inhalation formulations of 1'-cyano substituted carba-nucleoside analogs” (priority 2020, dated 2023):
# Values joined by “and” are separate entries in the source; they are usually repeats but may differ in a detail not shown here. Identical values can stand only once. Like-named read-outs stand apart in the source and are kept apart here.
# Legend:
# [1] = 24 hours, endogenous ATP
# [2] = format: physicochemical
# Protocol: For each condition, samples were staged at ambient and refrigerated conditions. Samples were analyzed for % assay/degs, appearance, reconstitution time, pH, and compared to T=0. The structures of the key impurities/metabolites are shown below.
# [3] = In use testing of reconstituted solutions in IV bags and IV tubings; format: physicochemical
# Source text: The IV bags and IV tubings were sampled over time and tested for % assay/degradation.
smiles,measurement,setting,value
Nc1ncnc2c1ncn2[C@@H]1O[C@H](COP(=O)(O)OP(=O)(O)OP(=O)(O)O)[C@@H](O)[C@H]1O [ATP],ATP Peak Area (LC-MS/MS),"[1]; Nasal Mucosa, 0.168 mg/kg inhaled deposited dose of Formula Ia",6.47 ± 0.40 ×10^8
same,ATP Peak Area (LC-MS/MS),"[1]; Nasal Mucosa, 0.536 mg/kg inhaled deposited dose of Formula Ia",5.65 ± 0.79 ×10^8
same,ATP Peak Area (LC-MS/MS),"[1]; Nasopharyngeal Mucosa, 0.168 mg/kg inhaled deposited dose of Formula Ia",4.29 ± 0.84 ×10^8
same,ATP Peak Area (LC-MS/MS),"[1]; Nasopharyngeal Mucosa, 0.536 mg/kg inhaled deposited dose of Formula Ia",3.69 ± 0.40 ×10^8
CCC(CC)COC(=O)[C@H](C)N[P@](=O)(OC[C@H]1O[C@@](C(N)=O)(c2ccc3c(N)ncnn23)[C@H](O)[C@@H]1O)Oc1ccccc1 [Compound G],"% assay/degs, difference from T = 0","[2]; pH 1.8, 2-8° C., 2 h",0.00%
same,"% assay/degs, difference from T = 0","[2]; pH 1.8, 2-8° C., 3 h",0.00%
same,"% assay/degs, difference from T = 0","[2]; pH 1.8, 2-8° C., 8 h",0.00%
same,"% assay/degs, difference from T = 0","[2]; pH 1.8, 2-8° C., 24 h",0.00%
same,"% assay/degs, difference from T = 0","[2]; pH 1.8, 2-8° C., 48 h",0.00%
same,"% assay/degs, difference from T = 0","[2]; pH 1.8, Ambient, 1 h",0.00%
same,"% assay/degs, difference from T = 0","[2]; pH 1.8, Ambient, 2 h",0.00%
same,"% assay/degs, difference from T = 0","[2]; pH 1.8, Ambient, 3 h",0.00%
same,"% assay/degs, difference from T = 0","[2]; pH 1.8, Ambient, 8 h",0.00%
same,"% assay/degs, difference from T = 0","[2]; pH 1.8, Ambient, 24 h",0.00%
same,"% assay/degs, difference from T = 0","[2]; pH 1.8, Ambient, 48 h",0.00%
same,% assay/degs,"[2]; pH 1.8, T = 0",0.05%
same,"% assay/degs, difference from T = 0","[2]; pH 2.0, 2-8° C., 2 h",0.00%
same,"% assay/degs, difference from T = 0","[2]; pH 2.0, 2-8° C., 3 h",0.00%
same,"% assay/degs, difference from T = 0","[2]; pH 2.0, 2-8° C., 8 h",0.00%
same,"% assay/degs, difference from T = 0","[2]; pH 2.0, 2-8° C., 24 h",0.00%
same,"% assay/degs, difference from T = 0","[2]; pH 2.0, 2-8° C., 48 h",0.00%
same,"% assay/degs, difference from T = 0","[2]; pH 2.0, Ambient, 1 h",0.00%
same,"% assay/degs, difference from T = 0","[2]; pH 2.0, Ambient, 2 h",0.00%
same,"% assay/degs, difference from T = 0","[2]; pH 2.0, Ambient, 3 h",0.00%
same,"% assay/degs, difference from T = 0","[2]; pH 2.0, Ambient, 8 h",0.00%
same,"% assay/degs, difference from T = 0","[2]; pH 2.0, Ambient, 24 h",0.00%
same,"% assay/degs, difference from T = 0","[2]; pH 2.0, Ambient, 48 h",0.00%
same,% assay/degs,"[2]; pH 2.0, T = 0",0.05%
same,"% assay/degs, difference from T = 0","[2]; pH 3.5, 2-8° C., 2 h",0.00%
same,"% assay/degs, difference from T = 0","[2]; pH 3.5, 2-8° C., 8 h",0.00%
same,"% assay/degs, difference from T = 0","[2]; pH 3.5, 2-8° C., 24 h",0.00%
same,"% assay/degs, difference from T = 0","[2]; pH 3.5, 2-8° C., 48 h",0.00%
same,"% assay/degs, difference from T = 0","[2]; pH 3.5, 2-8° C., 72 h",0.00%
same,"% assay/degs, difference from T = 0","[2]; pH 3.5, 2-8° C., 96 h",0.00%
same,"% assay/degs, difference from T = 0","[2]; pH 3.5, 2-8° C., 168 h",0.00%
same,"% assay/degs, difference from T = 0","[2]; pH 3.5, Ambient, 2 h",0.00%
same,"% assay/degs, difference from T = 0","[2]; pH 3.5, Ambient, 8 h",0.00%
same,"% assay/degs, difference from T = 0","[2]; pH 3.5, Ambient, 24 h",0.00%
same,"% assay/degs, difference from T = 0","[2]; pH 3.5, Ambient, 48 h",0.00%
same,"% assay/degs, difference from T = 0","[2]; pH 3.5, Ambient, 72 h",0.00%
same,"% assay/degs, difference from T = 0","[2]; pH 3.5, Ambient, 96 h",0.00%
same,"% assay/degs, difference from T = 0","[2]; pH 3.5, Ambient, 168 h",0.00%
same,% assay/degs,"[2]; pH 3.5, T = 0",0.05%
same,"% assay/degs, difference from T = 0","[2]; pH 3.8, 2-8° C., 7.2 h",0.00%
same,"% assay/degs, difference from T = 0","[2]; pH 3.8, 2-8° C., 24 h",0.00%
same,"% assay/degs, difference from T = 0","[2]; pH 3.8, 2-8° C., 96 h",0.00%
same,"% assay/degs, difference from T = 0","[2]; pH 3.8, 2-8° C., 168 h",0.00%
same,"% assay/degs, difference from T = 0","[2]; pH 3.8, Ambient, 7.2 h",0.00%
same,"% assay/degs, difference from T = 0","[2]; pH 3.8, Ambient, 24 h",0.00%
same,"% assay/degs, difference from T = 0","[2]; pH 3.8, Ambient, 96 h",0.00%
same,"% assay/degs, difference from T = 0","[2]; pH 3.8, Ambient, 168 h",0.00%
same,% assay/degs,"[2]; pH 3.8, T = 0",0.05%
same,"% assay/degs, difference from T = 0","[2]; pH 4.0, 2-8° C., 7.2 h",0.00%
same,"% assay/degs, difference from T = 0","[2]; pH 4.0, 2-8° C., 24 h",0.00%
same,"% assay/degs, difference from T = 0","[2]; pH 4.0, 2-8° C., 96 h",0.00%
same,"% assay/degs, difference from T = 0","[2]; pH 4.0, 2-8° C., 168 h",0.00%
same,"% assay/degs, difference from T = 0","[2]; pH 4.0, Ambient, 7.2 h",0.00%
same,"% assay/degs, difference from T = 0","[2]; pH 4.0, Ambient, 24 h",0.00%
same,"% assay/degs, difference from T = 0","[2]; pH 4.0, Ambient, 96 h",0.00%
same,"% assay/degs, difference from T = 0","[2]; pH 4.0, Ambient, 168 h",0.00%
same,% assay/degs,"[2]; pH 4.0, T = 0",0.06%
same,% assay/degradation,"[3]; 30 mg (IV Bag), 2-8° C. 24 h",0.05 % w/w
same,% assay/degradation,"[3]; 30 mg (IV Bag), 2-8° C. 48 h",0.06 % w/w
same,% assay/degradation,"[3]; 30 mg (IV Bag), Ambient 4 h",0.06 % w/w
same,% assay/degradation,"[3]; 30 mg (IV Bag), Ambient 8 h",0.06 % w/w
same,% assay/degradation,"[3]; 30 mg (IV Bag), Ambient 24 h",0.06 % w/w
same,% assay/degradation,"[3]; 30 mg (IV Bag), T = 0 (2-8° C. series)",0.05 % w/w
same,% assay/degradation,"[3]; 30 mg (IV Tube), Ambient 6 Hours",0.06 % w/w
same,% assay/degradation,"[3]; 30 mg in 100 mL 0.9% Saline (IV Bag), T = 0 (Ambient series)",0.05 % w/w
same,% assay/degradation,"[3]; 200 mg (IV Bag), 2-8° C. 24 h",0.05 % w/w
same,% assay/degradation,"[3]; 200 mg (IV Bag), 2-8° C. 48 h",0.06 % w/w
same,% assay/degradation,"[3]; 200 mg (IV Bag), Ambient 4 h",0.06 % w/w
same,% assay/degradation,"[3]; 200 mg (IV Bag), Ambient 8 h",0.06 % w/w
same,% assay/degradation,"[3]; 200 mg (IV Bag), Ambient 24 h",0.06 % w/w
same,% assay/degradation,"[3]; 200 mg (IV Bag), T = 0 (2-8° C. series)",0.05 % w/w
same,% assay/degradation,"[3]; 200 mg (IV Tube), Ambient 6 h",0.05 % w/w
same,% assay/degradation,"[3]; 200 mg in 100 mL 0.9% Saline (IV Bag), T = 0 (Ambient series)",0.05 % w/w
Oc1ccccc1 [Phenol],% assay/degs,[2]; pH 1.8,0.00%
same,"% assay/degs, difference from T = 0",[2]; pH 1.8,0.00% and 0.04% and 0.08%
same,% assay/degs,[2]; pH 2,0.00%
same,"% assay/degs, difference from T = 0",[2]; pH 2,0.00% and 0.04% and 0.05%
same,% assay/degs,[2]; pH 3.5,0.00%
same,"% assay/degs, difference from T = 0",[2]; pH 3.5,0.00%
same,% assay/degradation,[3],0.00 % w/w
